Data published in patent publication EP4793292A1, “POLYPEPTIDE DERIVATIVE, PHARMACEUTICAL COMPOSITION THEREOF AND USE THEREOF” (Biocells (Beijing) Biotech Co., Ltd., priority 2023, dated 2025).
Starred links: 1 amine or outer side, 2 acyl side, 3 side chain; linkers in the order of their positions; H or OH if unused. Positions of bridges follow the written chain, without caps; N, C: chain ends. Residues, ends and D or L forms follow the SMILES beside them. Groups on a side chain read outwards from the residue. No end group written: not given here. *: point of attachment. C18 diacid = O=C(O)CCCCCCCCCCCCCCCCC(=O)*; γGlu = O=C(O)[C@H](CCC(=O)[*:2])N[*:1]; AEEA = NCCOCCOCC(=O)O

Key:
[1] = Determination of the half-life of polypeptides in rats (plasma LC-MS/MS); format: in vivo; parameters: AUClast (0-120 min): unit not given here; settings: male SD rats, intravenous 4 mg/kg; for level at 0.5 h / half-life: rat, plasma; for level at 0.5 h / 30 min blood drug concentration: 30 min after injection; for level at 0.5 h: read-out: 30 min blood drug concentration
Description: Plasma sample collection method: 2 male SD rats (280-300 g) were intravenously injected with PW5, PW6, PW182, and PW337 respectively, the pure peptide dose was 4 mg/kg, and the dosing volume was 2 mL/kg. At 0.5 min, 2 min, 5 min, 10 min, 15 min, 30 min, 60 min, and 120 min after intravenous injection of the drug via the tail vein, blood (400 µL/time) was collected through an indwelling jugular vein catheter into anticoagulant tubes containing EDTA-K2, and 100x protease inhibitor (1:50, v:v; Roche, 11873580001) was added. Whole blood samples were placed on ice and centrifuged (3200 g, 4°C, 10 min) within 1 hour after blood collection. Plasma was taken into a pre-cooled centrifuge tube, protease inhibitor (1:50, v:v) was added again, mixed homogeneously, and stored at -80°C.
Plasma sample processing method: Plasma samples were pipetted into a 96-well plate (50 µL/well), pure methanol (300 µL/well) was added, and mixed by vortexing (1500 rpm, 10 min). Centrifuged (4800 g, 4°C, 10 min), the supernatant was taken into a new 96-well plate (100 µL/well), a 20% aqueous methanol solution containing 0.2% formic acid (100 µL/well) was added, and mixed by vortexing (1500 rpm, 3 min). 10.0 µL was injected for LC-MS/MS analysis to obtain the drug concentration in the samples. Instrument model: (Waters TQ-XS) Chromatographic column: SHIMADZU Shim-Pack Scepter Claris C4-300 (2.1×50 mm, 1.9 µm) Detection results: Table 3. Half-life, blood drug concentration, and AUC data of the conjugates

[2] = test system: SH-SY5Y cells; assay: Axonal growth of RA-differentiated SH-SY5Y cells on proteoglycan (ACAN) coating; format: cell-based, human; settings: PW polypeptide 2.5 µM, 72 h, proteoglycan (ACAN)-coated plate, FIG. 1
Description: Therefore, RA-induced differentiated SH-SY5Y can be used to simulate neuronal axonal growth in vitro and to test the effects of PW polypeptides on axonal growth.
Preparation of culture medium for SH-SY5Y: 1) DMEM/F12 + 10% FBS + 1 × penicillin-streptomycin + 1 mM sodium pyruvate; 2) DMEM/F12 + 1% FBS + 1 × penicillin-streptomycin + 1 mM sodium pyruvate. Preparation of 50 mM retinoic acid stock solution: 15.02 mg of retinoic acid was weighed and dissolved in 1 mL of dimethyl sulfoxide (DMSO), aliquoted, and frozen at -80°C. Proteoglycan (ACAN/CSPG1) is a type of chondroitin sulfate proteoglycan (CSPG). Preparation of 1 mg/mL proteoglycan stock solution: 1 mg of ACAN solid was dissolved in 1 mL of distilled water, aliquoted, and frozen at -80°C. Preparation of PW polypeptide solution for cells (1 mM): the corresponding mass of polypeptide powder was weighed, dissolved in PBS and filtered through a 0.2 µm filter membrane, aliquoted, and frozen at -20°C.
The 1 mg/mL proteoglycan was diluted to 250 µg/mL with distilled water to coat a 24-well cell culture plate: each well was coated with 3 droplets of ACAN, 2 µL per droplet. Using the culture medium containing 10% FBS, SH-SY5Y cells were seeded in the proteoglycan-coated 24-well plate (20,000 cells/well) and incubated (37°C, 5% CO2) for 20 h. The medium was replaced with a culture medium containing 1% FBS, and PW polypeptide (2.5 µM) or an equal volume of PBS solution was added. After incubation for 72 h, the cells were fixed with 4% paraformaldehyde (room temperature, 30 min), and cell morphology was photographed and recorded using a 10× optical microscope. 20-30 cells were randomly selected under each field of view, and axonal length was measured using Image J-SNT.
Data analysis: All measured axonal lengths within each proteoglycan-coated range were averaged to serve as one data point. One-way analysis of variance and Tukey's test were used to compare the differences between groups. P<0.05 was considered as a significant difference.

[3] = Body weight of rats after spinal cord injury (SCI) surgery; format: in vivo; settings: 1 mg/kg subcutaneous daily, female SD rats, FIG. 2
Description: (§1) Female SD rats (250-270 g) were randomly grouped after being weighed. After the dorsal T10 segment lamina of the rats was removed, spinal cord contusion was performed on rats in each spinal cord injury (SCI) surgery group, while for rats in the sham operation (sham) group, only the T10 segment lamina was removed without contusion. Rats with a BBB locomotor score > 1 on day 1 after spinal cord injury surgery were excluded, and the remaining rats were randomly grouped and subcutaneously injected daily with: equal volume of physiological saline (vehicle control), PW5 (1 mg/kg), and PW337 (1, 2, 4 mg/kg); rats in the sham operation group were not injected. The body weight of the rats was measured weekly after spinal cord injury surgery, and BBB scoring and open field activity tests were performed.

[4] = test system: rats with chronic spinal cord injury; assay: BBB locomotor scoring in rats with chronic spinal cord injury; format: in vivo; settings: 2 mg/kg subcutaneous daily; days 1-14 after surgery (acute and subacute phase), FIG. 4
Description: as §1, with “(2” for “(1”, “(2” for “(1, 2, 4”, “BBB scoring” for “The body weight of the rats”, “performed” for “measured”, “surgery.” for “surgery, and BBB scoring and open field activity tests were performed.”

CC[C@H](C)[C@H](NC(=O)[C@H](CO)NC(=O)[C@H](CCC(=O)O)NC(=O)[C@H](Cc1ccc(O)cc1)NC(=O)[C@H](CCC(=O)O)NC(=O)[C@H](CCC(N)=O)NC(=O)[C@H](CO)NC(=O)[C@H](CC(C)C)NC(=O)[C@H](CCCCNC(=O)COCCOCCNC(=O)COCCOCCNC(=O)CC[C@H](NC(=O)CCCCCCCCCCCCCCCCC(=O)O)C(=O)O)NC(=O)[C@H](CC(C)C)NC(=O)[C@H](CO)NC(=O)[C@H](CC(=O)O)NC(=O)[C@H](CC(N)=O)NC(=O)[C@H](C)NC(=O)[C@H](CCCCN)NC(=O)[C@H](CC(C)C)NC(=O)[C@H](CCCNC(=N)N)NC(=O)[C@H](CCC(=O)O)NC(=O)[C@@H](NC(=O)[C@H](Cc1c[nH]cn1)NC(=O)[C@H](CCC(=O)O)NC(=O)[C@H](C)NC(=O)[C@H](CCSC)NC(=O)[C@H](CC(=O)O)NC(=O)[C@H](CCCNC(=N)N)NC(=O)[C@H](CCCNC(=N)N)NC(=O)[C@H](CCCNC(=N)N)NC(=O)[C@H](CCC(N)=O)NC(=O)[C@H](CCCNC(=N)N)NC(=O)[C@H](CCCNC(=N)N)NC(=O)[C@H](CCCCN)NC(=O)[C@H](CCCCN)NC(=O)[C@H](CCCNC(=N)N)NC(=O)CN)[C@@H](C)O)C(N)=O [PW-182] (H-GRKKRRQRRRDMAEHTERLKANDSLK([AEEA-AEEA-γGlu-C18 diacid])LSQEYESI-NH2)
AUClast (0-120 min) [1]: 4927113 | level at 0.5 h [1]: 64.4 µg/mL | half-life [1]: 61.6 min

GRKKRRQRRRCDMAEHTERLKANDSLKLSQEYESI-NH2 [PW-6, reference compound]
effect of promoting axonal growth compared with the scrambled polypeptide (Scr, negative control) [2]: significant effect of promoting axonal growth | AUClast (0-120 min) [1]: 1787 | 30 min blood drug concentration [1]: 0 ng/mL | half-life [1]: 2.2 min

CC[C@H](C)[C@H](NC(=O)[C@H](CO)NC(=O)[C@H](CCC(=O)O)NC(=O)[C@H](Cc1ccc(O)cc1)NC(=O)[C@H](CCC(=O)O)NC(=O)[C@H](CCC(N)=O)NC(=O)[C@H](CO)NC(=O)[C@H](CC(C)C)NC(=O)[C@H](CCCCNC(=O)COCCOCCNC(=O)COCCOCCNC(=O)CC[C@H](NC(=O)CCCCCCCCCCCCCCCCC(=O)O)C(=O)O)NC(=O)[C@H](CC(C)C)NC(=O)[C@H](CO)NC(=O)[C@H](CC(=O)O)NC(=O)[C@H](CC(N)=O)NC(=O)[C@H](C)NC(=O)[C@H](CCCCN)NC(=O)[C@H](CC(C)C)NC(=O)[C@H](CCCNC(=N)N)NC(=O)[C@H](CCC(=O)O)NC(=O)[C@H](CCSC)NC(=O)[C@H](Cc1c[nH]cn1)NC(=O)[C@H](CCC(=O)O)NC(=O)[C@H](C)NC(=O)[C@H](CCSC)NC(=O)[C@H](CC(=O)O)NC(=O)[C@H](CCCNC(=N)N)NC(=O)[C@H](CCCNC(=N)N)NC(=O)[C@H](CCCNC(=N)N)NC(=O)[C@H](CCC(N)=O)NC(=O)[C@H](CCCNC(=N)N)NC(=O)[C@H](CCCNC(=N)N)NC(=O)[C@H](CCCCN)NC(=O)[C@H](CCCCN)NC(=O)[C@H](CCCNC(=N)N)NC(=O)CN)C(N)=O [PW-337]
AUClast (0-120 min) [1]: 4157725 | level at 0.5 h [1]: 56.8 µg/mL | half-life [1]: 95.6 min

CC[C@H](C)[C@H](NC(=O)[C@H](CO)NC(=O)[C@H](CCC(=O)O)NC(=O)[C@H](Cc1ccc(O)cc1)NC(=O)[C@@H]1CCC(=O)NCCCC[C@H](NC(=O)[C@H](CC(C)C)NC(=O)[C@H](CO)NC(=O)[C@H](CC(=O)O)NC(=O)[C@H](CC(N)=O)NC(=O)[C@H](C)NC(=O)[C@H](CCCCN)NC(=O)[C@H](CC(C)C)NC(=O)[C@H](CCCNC(=N)N)NC(=O)[C@H](CCC(=O)O)NC(=O)[C@@H](NC(=O)[C@H](Cc2c[nH]cn2)NC(=O)[C@H](CCC(=O)O)NC(=O)[C@H](C)NC(=O)[C@H](CCSC)NC(=O)[C@H](CC(=O)O)NC(=O)[C@H](CS)NC(=O)[C@H](CCCNC(=N)N)NC(=O)[C@H](CCCNC(=N)N)NC(=O)[C@H](CCCNC(=N)N)NC(=O)[C@H](CCC(N)=O)NC(=O)[C@H](CCCNC(=N)N)NC(=O)[C@H](CCCNC(=N)N)NC(=O)[C@H](CCCCN)NC(=O)[C@H](CCCCN)NC(=O)[C@H](CCCNC(=N)N)NC(=O)CN)[C@@H](C)O)C(=O)N[C@@H](CC(C)C)C(=O)N[C@@H](CO)C(=O)N[C@@H](CCC(N)=O)C(=O)N1)C(N)=O [PW-170] (H-GRKKRRQRRRCDMAEHTERLKANDSLKLSQEYESI-NH2; lactam 27-31)
effect of promoting axonal growth compared with the scrambled polypeptide (Scr, negative control) [2]: significant effect of promoting axonal growth | promoting effect on axonal growth compared with PW6 [2]: no significant difference

CC[C@H](C)[C@H](NC(=O)[C@H](CO)NC(=O)[C@H](CCC(=O)O)NC(=O)[C@H](Cc1ccc(O)cc1)NC(=O)[C@H](CCC(=O)O)NC(=O)[C@H](CCC(N)=O)NC(=O)[C@H](CO)NC(=O)[C@H](CC(C)C)NC(=O)[C@H](CCCCN)NC(=O)[C@H](CC(C)C)NC(=O)[C@H](CO)NC(=O)[C@H](CC(=O)O)NC(=O)[C@H](CC(N)=O)NC(=O)[C@H](C)NC(=O)[C@H](CCCCN)NC(=O)[C@H](CC(C)C)NC(=O)[C@H](CCCNC(=N)N)NC(=O)[C@H](CCC(=O)O)NC(=O)[C@H](CCSC)NC(=O)[C@H](Cc1c[nH]cn1)NC(=O)[C@H](CCC(=O)O)NC(=O)[C@H](C)NC(=O)[C@H](CCSC)NC(=O)[C@H](CC(=O)O)NC(=O)[C@H](CS)NC(=O)[C@H](CCCNC(=N)N)NC(=O)[C@H](CCCNC(=N)N)NC(=O)[C@H](CCCNC(=N)N)NC(=O)[C@H](CCC(N)=O)NC(=O)[C@H](CCCNC(=N)N)NC(=O)[C@H](CCCNC(=N)N)NC(=O)[C@H](CCCCN)NC(=O)[C@H](CCCCN)NC(=O)[C@H](CCCNC(=N)N)NC(=O)CN)C(N)=O [PW-5, reference compound]
AUClast (0-120 min) [1]: 928 | 30 min blood drug concentration [1]: 0 ng/mL | half-life [1]: 4.3 min | body weight recovery compared with rats in the spinal cord injury (SCI) group [3]: significantly accelerated on days 27-57 after surgery | BBB scores, differences among SCI, PW5 and PW337 groups [4]: no significant differences
